Measured values published in patent US20230272484A1, “METHODS OF PROGNOSING, DETERMINING TREATMENT COURSE AND TREATING MULTIPLE MYELOMA” (Yeda Research and Development Co. Ltd., priority 2020, published 2023).

Tested on: ex-vivo cultured patient malignant plasma cells (PRMM patient Z01)
Assay: FACS apoptosis assay (DAPI and Annexin-V) on ex vivo cultured patient cells
Assay type: cell-based, human
Conditions: resistant PRMM patient Z01, DAPI and Annexin-V FACS
Method: Finally, it was evaluated whether this synergistic effect is also relevant to PI resistant MM patients. For this end, the present inventors collected BM sample from a highly resistant PRMM patient (Z01, Methods) and sorted the cells for MARS-seq analysis, confirming the patient is also positive for the resistance signature 1 (FIGS. 9E-G). […] The present inventors evaluated the patient ex vivo response to these treatments by FACS analysis of apoptotic cells using DAPI and Annexin-V staining.

CC(C)C[C@H](NC(=O)[C@H](CCc1ccccc1)NC(=O)CN1CCOCC1)C(=O)N[C@@H](Cc1ccccc1)C(=O)N[C@@H](CC(C)C)C(=O)[C@@]1(C)CO1 [Carfilzomib]
live cells: 23.4%
